# Measurements from US20260355079A1, “Oral Care Compositions Comprising Hops Beta Acids And Fluoride Ions” (priority 2019, published 2026).
# System: 3-day biofilm (plaque biofilm)
# Test: in vitro plaque glycolysis model (iPGRM): acid production and acid (glycolysis) inhibition
# Format: cell-based, plaque microorganisms from pooled human saliva
# Conditions: TABLE 2; 2 min treatment, slurry in water (1:5)
# Description: Acid Production and Acid Inhibition [%]
# Acid production and acid inhibition were determined with the in vitro plaque glycolysis model (iPGRM). The purpose of this technique is to provide a simple and quick method for determining if compounds have an influence on the metabolic pathways that plaque microorganisms utilize to produce toxins that adversely affect gingival health.
# The in vitro plaque glycolysis model (iPGRM) is a technique in which plaque is grown from human saliva and treated with various agents to determine anti-glycolytic activity of treatments. When bacteria convert sugar into energy with the help of enzymes, acids are formed. These acids demineralize and damage the dental enamel. The purpose of this technique is to provide a simple and quick method for determining if treatment compounds have an inhibitory effect on the metabolic pathways that plaque microorganisms utilize for the production of acids or toxins and/or inhibit their growth. […]
# […] The pH of the media solutions was then measured to determine the amount of glycolysis inhibition relative to a negative control.
# On Day 1, new glass rods (5 mm×90 mm) were polished approximately 25 mm from the un-tapered end on a lathe with silicon carbide paper of 240, 320, 400, and 600 grit used sequentially. […] After polishing, rods were stored until ready to run test. […]
smiles,measurement,value
[H]/N=C(\N/C(=N/[H])NCCCCCCNC(=N)NC(=N)Nc1ccc(Cl)cc1)Nc1ccc(Cl)cc1 [Chlorhexidine],"Acid Production (ΔpH), Mean",0.30
